Assay results taken from patent US5646141A, “Compounds useful as antiproliferative agents and GARFT inhibitors” (Agouron Pharmaceuticals, Inc., priority 1995, dated 1997).

Assays:
[1] = tested on: L1210; assay: In vitro growth inhibition (MTT), L1210; format: cell-based; conditions: Mus musculus, continuous (72-hour) exposure, mean IC50, read-out: IC50 Cell Culture L1210
Protocol: (§1) All cultures were maintained at 37° C., 5% air-CO2 in a humidified incubator.
In vitro growth inhibition:
(§2) Stock solutions of the inhibitors were prepared in 10 mM sodium bicarbonate in water and stored in 1 ml aliquots at -20° C. for cell culture experiments. Cell-growth inhibition was measured by a modification of the method of Mosmann, J. Immunol.
(§3) Column 1 was filled with the same volume, 135 ml, of fresh medium, without cells, for use as a blank. The plates were then placed in a 37° C., 5% air-CO2 incubator. After 1 to 4 hours, plates were removed from the incubator followed by addition of the test compound at 10×final concentration, 15 ml/well in binary dilutions, to columns 12 to 4. […] Wells containing each concentration of test compound were prepared in quadruplicate on each plate. Fifteen milliliters of media, without test compound, were added to the wells in column 1 of the plates. The cells were then returned to the incubator and remained undisturbed for the full incubation period. On day 3 for L1210 and L1210/CI920 cells or day 5 for CCRF-CEM cells, 50 ml of 0.8 mg/ml MTT (4,5-dimethylthiazol-2-yl)-2,5-diphenyl tetrazolium bromide; Sigma catalog no. […] The concentration of drug required to reduce cell growth by 50% as measured by MTT metabolism was determined by interpolation between the O.D. (minus blank) immediately above and below 50% of control O.D. (minus blank).

[2] = target: T1, catalytic domain of the human GARFT (Homo sapiens, UniProt P22102); assay: GAR transformylase (GARFT) inhibition constant determination; format: biochemical; conditions: 20° C., pH 7.5, competitive with respect to FDDF
T1 construct: catalytic domain of the human GARFT
T1 sequence (P22102 810-1010 limits assumed): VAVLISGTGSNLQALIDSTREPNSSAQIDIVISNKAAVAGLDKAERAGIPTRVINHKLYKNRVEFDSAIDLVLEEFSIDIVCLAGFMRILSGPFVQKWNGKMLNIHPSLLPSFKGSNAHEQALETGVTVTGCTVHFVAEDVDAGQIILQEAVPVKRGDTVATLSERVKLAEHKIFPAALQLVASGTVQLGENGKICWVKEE

[3] = tested on: CCRF-CEM; assay: In vitro growth inhibition (MTT), CCRF-CEM; format: cell-based; conditions: Homo sapiens, title: continuous (72-hour) exposure, incubation 5 days, mean IC50, read-out: IC50 Cell Culture CCRF-CEM
Protocol: as §1
In vitro growth inhibition:
as §2, §3

[4] = target: T2, human folate-binding protein (FBP) (Homo sapiens, UniProt P15328); assay: FBP competitive binding assay (3H-folic acid, KB cell membranes); conditions: for Kd: 25° C., pH 7.4, 3H-folic acid competition
T2 construct: membrane associated FBP prepared from cultured KB cells; endogenous in cells; host or cells: KB cells (membrane fraction)
T2 sequence (P15328 25-257): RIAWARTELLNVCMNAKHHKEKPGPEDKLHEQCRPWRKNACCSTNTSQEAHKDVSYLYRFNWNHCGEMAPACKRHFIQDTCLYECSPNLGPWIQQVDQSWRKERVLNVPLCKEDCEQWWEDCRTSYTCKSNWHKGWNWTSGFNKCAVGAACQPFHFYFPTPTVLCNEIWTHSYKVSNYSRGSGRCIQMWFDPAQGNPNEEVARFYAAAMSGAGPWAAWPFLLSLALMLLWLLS
Protocol: Determination of Dissociation Constants for Human Folate Binding Protein:
The dissociation constant (Kd) for human folate-binding protein (FBP) was determined in a competitive binding assay using membrane associated FBP prepared from cultured KB cells.
Preparation of KB cell Membrane Fraction:
Adherent KB cells were scraped from flasks, washed once in ice-cold PBS, and centrifuged at 5000×g for 5 minutes at 4° C. Pelleted cells (2×10^8 cells) were resuspended in 10 ml of suspension buffer (KH2 PO4 -KOH pH 7.4:10 mM EDTA:10 mM 2-mercaptoethanol),sonicated briefly to complete cell lysis and centrifuged at 12000×g for 10 minutes at 4° C. The pellet was stripped of endogenous bound folate by resuspension in 20 ml of acidic buffer (50 mM KH2 PO4 -KOH pH 3.5:10 mM EDTA:10 mM 2-mercaptoethanol) and centrifuged as before. The pellet was then resuspended in 20 ml of the suspension buffer at pH 7.4 and centrifuged as before. The pellet was resuspended in 5 ml of suspension buffer at pH 7.4 lacking EDTA. Protein content was quantitated using the Bradford method with BSA as standard. Typical yields for this procedure were 4-5 mg total membrane protein per 2×10^8 cells. This final suspension was used as a source of membrane-associated human FBP.
FBP Competitive Binding Assay:
Inhibitor was allowed to compete against ^3 H-folic acid for binding to FBP. Reactions mixtures contained […] of cell membrane protein containing 3-6 pmoles (3-6 nM) of FBP, 17.25 pmoles ^3 H-folic acid (17.25 nM, 0.5 μCi), various concentrations of competitor, in 1 ml of 50 mM KH2 PO4 -KOH pH 7.4:10 mM 2-mercaptoethanol. Reactions were performed at 25° C. Because of the very slow release of bound ^3 H-folic acid, the competitor was prebound for 30 minutes in the absence of ^3 H-folic acid. ^3 H-Folic acid was then added and the mixtures were allowed to equilibrate for 2.5 hours. […] The amount of bound ^3 H-folic acid was measured by scintillation counting of the nitrocellulose membrane. […]

[5] = tested on: mFBP; conditions: cited from earlier work
[6] = tested on: reduced folate transport system and the mFBP; conditions: CCRF-CEM and MA104 cell lines for DDATHF (Pizzorno et al.); cited from earlier work
[7] = reported in literature (Muggia); cited from earlier work

Cc1cc(C(=O)N[C@@H](CCC(=O)O)C(=O)O)sc1CCC1CNc2nc(N)[nH]c(=O)c2C1 (stereo partly drawn) [Compound 1, N-(5-[2-(2-amino-4(3H)-oxo-5,6,7,8-tetrahydropyrido[2,3-d]pyrimidin 6-yl)ethyl]-4-methylthieno-2-yl)-L-glutamic acid]
IC50 [1]: 13.5 nM | Ki [2]: 1.4 nM | IC50 [3]: 6.1 nM | Kd [4]: 28 nM | relative folate binding protein Kd, times less potent than 6R-DDATHF ([4]; relative to 6R-DDATHF): about 1400 times

Nc1nc2c(c(=O)[nH]1)CC(CCc1ccc(C(=O)N[C@@H](CCC(=O)O)C(=O)O)cc1)CN2 (stereo partly drawn) [DDATHF, 5,10-dideazatetrahydrofolic acid]
affinity for the mFBP [5]: high affinity for the mFBP | IC50 [1]: 17.5 nM | IC50 [3]: 1.5 nM | transport into cells [6]: transported into cells via both the reduced folate transport system and the mFBP | antitumor activity [7]: reported to show antitumor activity | Kd [4]: 0.02 nM

CN(Cc1cnc2nc(N)nc(N)c2n1)c1ccc(C(=O)N[C@@H](CCC(=O)O)C(=O)O)cc1 [Methotrexate]
transport into cells [6]: transported via the reduced folate transport system
